The test system of one series is Moraxella catarrhalis. Kind of series: In vitro antibacterial activity against Moraxella catarrhalis 30607 (b-lactamase+). It is filed as functional.
The nature of series [1]: Half life of compound (9.84 mg/kg) after po administration was determined in Sprague-Dawley rat. It is filed as ADME, organism-based. To be noted: in vivo.
Series [2] in a line: Tmax of compound (19.76 mg/kg) after po administration was determined in Sprague-Dawley rat. It is filed as ADME, organism-based. The conditions noted are these: in vivo.
A short description of series [3]: Oral bioavailability of compound (19.76 mg/kg) after po administration was determined in Sprague-Dawley rat. It is filed as ADME, organism-based. To be noted: in vivo.
The test system of a further series is Haemophilus influenzae. The series can be described thus: In vitro antibacterial activity against ampicillin resistant Haemophilus influenzae 30063 (AMPR b-lactamase+). In kind it is functional.
The subject of series [4] is Staphylococcus aureus. Kind of series: In vitro antibacterial activity against Staphylococcus aureus UC12673 (SA2). In kind it is functional.
The nature of series [5]: Maximum plasma concentration (Cmax) of compound (9.84 mg/kg) after iv administration was determined Sprague-Dawley rat. It is filed as ADME, organism-based. On the set-up: dose 9.84 mg/kg, route intravenous.
The subject of the next series is Streptococcus pneumoniae. The series can be described thus: In vitro antibacterial activity against penicillin susceptible Streptococcus pneumoniae UC19912 (PSSP). It is filed as functional.
For another series, the system named is Enterococcus faecalis. The series can be described thus: In vitro antibacterial activity against vancomycin susceptible Enterococcus faecalis UC19217 (VSEF). It is filed as functional.
The test system of series [6] is Rattus norvegicus. The series can be described thus: Steady state volume distribution (Vss) of compound(9.84 mg/kg) after iv administration was determined in Sprague-Dawley rat. In kind it is ADME, organism-based. To be noted: in vivo.
The subject of series [7] is Rattus norvegicus. Kind of series: Half life of compound (9.84 mg/kg) after iv administration was determined in Sprague-Dawley rat. In kind it is ADME, organism-based. To be noted: in vivo.
In series [8] the test system is Rattus norvegicus. Kind of series: Clearance (Cl) of compound (9.84 mg/kg) after iv administration was determined in Sprague-Dawley rat. In kind it is ADME, organism-based. The conditions noted are these: in vivo.
In series [9] the test system is Staphylococcus aureus. Kind of series: In vitro antibacterial activity against methicillin susceptible Staphylococcus aureus UC19213 (MSSA); (SA1). In kind it is functional.
The subject of series [10] is Staphylococcus epidermidis. Kind of series: In vitro antibacterial activity against methicillin resistant Staphylococcus epidermis US 12084 (MRSE). It is filed as functional.
Series [11] can be described thus: Maximum plasma concentration (Cmax) of compound (19.76 mg/kg) after po administration was determined Sprague-Dawley rat. It is filed as ADME, organism-based. On the set-up: dose 19.76 mg/kg, route oral.
A short description of series [12]: Half life of compound (9.92 mg/kg) after iv administration was determined in Sprague-Dawley rat. In kind it is ADME, organism-based. To be noted: in vivo.
Series [13] is described as follows: Maximum plasma concentration (Cmax) of compound (9.92 mg/kg) after iv administration was determined Sprague-Dawley rat. It is filed as ADME, organism-based. On the set-up: dose 9.92 mg/kg, route intravenous.
Series [14] in a line: Clearance (Cl) of compound (9.92 mg/kg) after iv administration was determined in Sprague-Dawley rat. The conditions noted are these: in vivo. In kind it is ADME, organism-based.
For series [15], the system named is Mus musculus. The series can be described thus: In vivo efficacy of compound to protect the Staphylococcus aureus UC9213 infected mouse from death after po administration. It is filed as functional.
Series [16] is described as follows: Half life of compound (20.73 mg/kg) after po administration was determined in Sprague-Dawley rat. In kind it is ADME, organism-based. To be noted: in vivo.
A short description of series [17]: Steady state volume distribution (Vss) of compound after iv administration was determined in Sprague-Dawley rat. It is filed as ADME, organism-based. The conditions noted are these: in vivo, read-out: Vss.
The nature of series [18]: Tmax of compound (20.73 mg/kg) after po administration was determined in Sprague-Dawley rat. In kind it is ADME, organism-based. To be noted: in vivo.
A short description of series [19]: Oral bioavailability of compound (20.73 mg/kg) after po administration was determined in Sprague-Dawley rat. It is filed as ADME, organism-based. To be noted: in vivo.
Series [20] can be described thus: Maximum plasma concentration (Cmax) of compound (20.73 mg/kg) after po administration was determined Sprague-Dawley rat. In kind it is ADME, organism-based. On the set-up: dose 20.73 mg/kg, route oral.
A short description of series [21]: Maximum plasma concentration (Cmax) of compound (25 mg/kg) after po administration was determined Sprague-Dawley rat. In kind it is ADME, organism-based. On the set-up: dose 25 mg/kg, route oral.
Series [22] deals with Mus musculus. The series can be described thus: In vivo efficacy of compound to protect the Staphylococcus aureus UC9213 infected mouse from death after sc administration. In kind it is functional.
A short description of series [23]: Clearance (Cl) of compound (10 mg/kg) after iv administration was determined in Sprague-Dawley rat. In kind it is ADME, organism-based. The conditions noted are these: in vivo.
Series [24] in a line: Tmax of compound (25 mg/kg) after po administration was determined in Sprague-Dawley rat. It is filed as ADME, organism-based. To be noted: in vivo.

Values after ≈ are worked out from the molar mass of the structure shown. Bounds are passed on as bounds.

In the case of `CC(=O)NC[C@H]1CN(c2ccc3c(c2)C[C@@H](C)N3C=O)C(=O)O1`, the MIC with Moraxella catarrhalis was 4 mg/L (≈ 12.6 µM); in the series with Haemophilus influenzae, 8 mg/L (≈ 25.2 µM); with Staphylococcus aureus [4], 1 mg/L (≈ 3.15 µM); in the series on Streptococcus pneumoniae, less than 0.5 mg/L; in the series with Enterococcus faecalis, 1 mg/L (≈ 3.15 µM); with Staphylococcus aureus [9], 1 mg/L (≈ 3.15 µM). Further, the MIC in series [10] is less than 0.5 mg/L. Besides, in series [1], the half-life – broadly, how long it takes for the measured level to halve – is 48 min. In addition, the Tmax – broadly, the time from dosing to the highest level – in [2] is 30 min. Besides, the bioavailability (commonly the share of a dose that reaches the circulation, judged against a reference dose that is usually intravenous) in series [3] came to 56%. In addition, the values for the Cmax in series [5] and in series [11] were 16.1 µg/mL and 7.2 µg/mL, respectively. In addition, the Vss – broadly, the apparent volume that relates the amount in the body to the concentration in plasma or blood – in the series with Rattus norvegicus [6] came to 1.27 L/kg. This molecule also gave a T1/2 in the series with Rattus norvegicus [7] of 102 min. In the series on Rattus norvegicus [8], the CL amounted to 0.11 L/h/kg.

`CC(=O)NC[C@H]1CN(c2ccc3c(c2)OC[C@@H](C)N3C=O)C(=O)O1`: the MIC with Moraxella catarrhalis is 8 mg/L (≈ 24 µM); with Haemophilus influenzae it was 64 mg/L (≈ 192 µM); in the series on Staphylococcus aureus [4], 2 mg/L (≈ 6 µM); against Streptococcus pneumoniae it was less than 1 mg/L; in the series with Enterococcus faecalis, 4 mg/L (≈ 12 µM); in the series on Staphylococcus aureus [9], 4 mg/L (≈ 12 µM). The MIC in series [10] was less than 1 mg/L.

In the case of `C/C(S)=N/C[C@H]1CN(c2ccc3c(c2)C[C@H](C)N3C=O)C(=O)O1`, the MIC against Moraxella catarrhalis is 16 mg/L (≈ 48 µM); in the series with Haemophilus influenzae, 32 mg/L (≈ 96 µM); with Staphylococcus aureus [4], 2 mg/L (≈ 6 µM); with Streptococcus pneumoniae, less than 0.5 mg/L; against Enterococcus faecalis, 2 mg/L (≈ 6 µM); against Staphylococcus aureus [9] it was 2 mg/L (≈ 6 µM). In series [10], the MIC was 1 mg/L (≈ 3 µM).

`CC(=O)NC[C@H]1CN(c2ccc3c(c2)C[C@@H](C)N3C(=O)CO)C(=O)O1`: the half-life in series [12] was 108 min; in series [16] it was 168 min. Also, the highest concentration (Cmax) (commonly the peak of the concentration-time curve) was 15.1 µg/mL in series [13] and 3.8 µg/mL in series [20]. Further, the MIC against Moraxella catarrhalis was 8 mg/L (≈ 23 µM); against Haemophilus influenzae it was 8 mg/L (≈ 23 µM); against Staphylococcus aureus [4], 2 mg/L (≈ 5.76 µM); in the series with Streptococcus pneumoniae, 0.5 mg/L (≈ 1.44 µM); against Enterococcus faecalis, 2 mg/L (≈ 5.76 µM); against Staphylococcus aureus [9], 4 mg/L (≈ 11.5 µM). In series [10], this molecule yielded an MIC of 0.5 mg/L (≈ 1.44 µM). Also, the clearance (as a rule, the volume of plasma or blood freed of the substance per unit of time) in [14] worked out at 1.44 L/h/kg. Also, the ED50 (as a rule, the dose at which the effect has come halfway, by size or by number of responders) in the series on Mus musculus [15] was found to be 1.8 mg/kg. In addition, the Vd in [17] is 1.28 L/kg. For the same molecule, the time to peak (Tmax) in [18] was determined as 30 min. In [19], the bioavailability is 55.4%.

Regarding `CC(=O)NC[C@H]1CN(c2ccc3c(c2)CC[C@H](C)N3C=O)C(=O)O1`, the MIC is 16 mg/L (≈ 48.3 µM) in the series with Moraxella catarrhalis; 64 mg/L (≈ 193 µM) with Haemophilus influenzae; 4 mg/L (≈ 12.1 µM) against Staphylococcus aureus [4]; less than 2 mg/L against Streptococcus pneumoniae; 8 mg/L (≈ 24.1 µM) in the series on Enterococcus faecalis; 8 mg/L (≈ 24.1 µM) in the series on Staphylococcus aureus [9]. Besides, in series [10], the MIC was less than 2 mg/L.

For `C/C(S)=N/C[C@H]1CN(c2ccc3c(c2)C[C@@H](C)N3C(=O)CO)C(=O)O1`, the MIC was 2 mg/L (≈ 5.5 µM) with Moraxella catarrhalis; 8 mg/L (≈ 22 µM) against Haemophilus influenzae; less than 0.5 mg/L in the series with Staphylococcus aureus [4]; less than 0.5 mg/L with Streptococcus pneumoniae; less than 0.5 mg/L in the series with Enterococcus faecalis; less than 0.5 mg/L in the series on Staphylococcus aureus [9]. The molecule further yielded an MIC in [10] of less than 0.5 mg/L.

For `C/C(S)=N/C[C@H]1CN(c2ccc3c(c2)CC[C@H](C)N3C=O)C(=O)O1`, the MIC against Moraxella catarrhalis was 2 mg/L (≈ 5.76 µM); in the series with Haemophilus influenzae, 16 mg/L (≈ 46.1 µM); in the series with Staphylococcus aureus [4] it was 1 mg/L (≈ 2.88 µM); against Streptococcus pneumoniae, less than 0.5 mg/L; with Enterococcus faecalis, 2 mg/L (≈ 5.76 µM); against Staphylococcus aureus [9], 1 mg/L (≈ 2.88 µM). This molecule yielded an MIC in [10] of less than 0.5 mg/L.

Turning to `C/C(S)=N/C[C@H]1CN(c2ccc3c(c2)CC[C@@H](C)N3C=O)C(=O)O1`, the MIC against Moraxella catarrhalis was 1 mg/L (≈ 2.88 µM); with Haemophilus influenzae, 4 mg/L (≈ 11.5 µM); in the series on Staphylococcus aureus [4], less than 0.5 mg/L; against Streptococcus pneumoniae, less than 0.5 mg/L; in the series on Enterococcus faecalis it was less than 0.5 mg/L; against Staphylococcus aureus [9] it was less than 0.5 mg/L. Further, the MIC in series [10] is less than 0.5 mg/L.

For the molecule `CC(=O)NC[C@H]1CN(c2ccc(N3CCOCC3)c(F)c2)C(=O)O1` [LINEZOLID], the MIC with Moraxella catarrhalis was 8 mg/L (≈ 23.7 µM); in the series with Haemophilus influenzae it was 16 mg/L (≈ 47.4 µM); in the series on Streptococcus pneumoniae, less than 0.5 mg/L; in series [10], less than 1 mg/L. In series [21], this molecule had a Cmax of 15.8 µg/mL. For the same molecule, it took a dose of 5.6 mg/kg to reach the 50% effect level in the series with Mus musculus [22] (ED50). Also, in series [23], the clearance came out at 0.63 L/h/kg. For the same molecule, the time to peak (Tmax) in series [24] was 18 min.
